Series [1] concerns rat primary cortical neurons. As to the kind of experiment: MEA hazard scoring in rat primary cortical neuronal cultures. The settings on record: statistical tolerance interval of the ΔΔ% effect; One-sided interval.
Method: At DIV28, spontaneous neuronal activity obtained for 30 min in culture solution was defined as the baseline.
Data analysis was captured using AxIs suite software (Axion Biosystems Inc., version 3.6.2) and further analyzed using GraphPad Prism (version 9.00; GraphPad Software Inc., San Diego, CA). […] An active well should have more than 40% active electrodes. All wells below this threshold were discarded upon these quality criteria. For the downstream statistical analysis, the data on each MEA parameter was first expressed as the ratio of exposed wells (percentage change between baseline and the treatment) and then normalized to the average of the control within the same plate. i.e., Baseline corrected ratios of n= 7 or eight wells were averaged per condition. Each well of the MEA served as its own control, and the changes in the electrical activity elicited by the treatments were expressed as a percentage of that control activity and normalized to the wells treated with the vehicle control dimethyl sulfoxide (DMSO). […] Differences were determined using the non-parametric Wilcoxon Mann Whitney test; p-values below 0.05 were considered significant. Data are expressed as means ± S.E.M.
Thereafter, based on the effects of vehicles and positive controls, we determined the cut-off points between the different effect zones according to the key parameters selected as described in the previous subsection. The zones were defined as follows. The “no effect” zone reflects parameter changes that are most likely within vehicle variability. The “mild” and “strong” zones are differentiated bidirectionally showing mild and strong effects.
The respective hazard class was determined by a cumulative scoring of individual parameters using a scoring matrix, which was based on the following three fundamental components: (1) selection of the six key relevant parameters, (2) defining the cutoffs for the level of effect, and (3) defining weighted points per parameter for the level of hazard potential. The scoring matrix concluded with the addition of a weighted point algorithm to discriminate distinct degrees of neuronal hazard. […] The weighted points were defined on the importance of a parameter (and the direction of effect), as well as the identification of an expected hazard for different pharmacological modes of action. The overall hazard score is derived from the sum of all weighted parameters, which could be converted into a specific hazard label. The weighted points and total score range associated with the various hazard labels were optimized using an iterative process.
For series [2] the following is noted: seizure ADR frequency in SIDER; ref Campillos et al., 2008; Kuhn et al., 2010; cited from earlier work.
For series [3] the following is noted: Supplementary Table S1; cited from earlier work.
For series [4] the following is noted: WHO adverse drug reactions VigiBase; ref Kumlien and Lundberg, 2010; cited from earlier work.
For series [5] the following is noted: ref National library of medicine, Daylimed; cited from earlier work.

This is an account of results in article PMC11170107, “Development of a new hazard scoring system in primary neuronal cell cultures for drug-induced acute neuronal toxicity identification in early drug discovery” (Frontiers in Pharmacology, 2024).

On to `C[C@]12N[C@H](Cc3ccccc31)c1ccccc12` [Dizocilpine (MK-801), Dizocilpine], for which, in series [1], the “Area.Under.Cross.Correlation Lower.TI” value is -94.33, the “Area.Under.Cross.Correlation Upper.TI” value is -47.25, the “Burst.Duration...Avg.(s. Lower.TI)” value is recorded as -41.38 and the “Burst.Duration...Avg.(s. Upper.TI)” value was 248.8. Moreover, in series [1], the “Mean.Firing.Rate..Hz. Lower.TI” value was -92.35, the “Mean.Firing.Rate..Hz. Upper.TI” value is -66.07, the “Median.Mean.ISI Lower.TI” value was -38.05 and the “Median.Mean.ISI Upper.TI” value worked out at 23.07.
Regarding `CC1(C)S[C@@H]2[C@H](NC(=O)[C@H](N)c3ccc(O)cc3)C(=O)N2[C@H]1C(=O)O` [Amoxicillin], the “SIDER ADR on-/off-label” value in series [2] was “very rare, postmarketing”. Besides, the “Free Cmax highest” value in series [3] was 25830 nM. For the same compound, the “Percentage seizures of total number of ADRs” value (from here on “Percentage seizures”) in series [4] is given as 0.1648%. For the same compound, the “FDA prescription information at therapeutic dose (Convulsion/ Seizure/Lower the seizure threshold/withdrawal)” value in series [5] was “on label”.
For the compound `NNC(=O)c1ccncc1` [Isoniazid], the “SIDER ADR on-/off-label” value in series [2] is “no frequency information”. The “Free Cmax highest” value in series [3] was 57000 nM. The “Percentage seizures” value in series [4] was 0.676%. Also, in series [5], the “FDA prescription information at therapeutic dose (Convulsion/ Seizure/Lower the seizure threshold/withdrawal)” value is recorded as “on label”.
As for `CN1CCc2cccc3c2[C@H]1Cc1ccc(O)c(O)c1-3` [Apomorphine], in series [2], the “SIDER ADR on-/off-label” value was “not found on label”. The “Free Cmax highest” value in series [3] was 0.4 nM. The “Percentage seizures” value in series [4] is listed as 0.382%. Also, the “FDA prescription information at therapeutic dose (Convulsion/ Seizure/Lower the seizure threshold/withdrawal)” value in series [5] is reported as “not found on label”.
`Cc1ncc(CO)c(CO)c1O` [Pyridoxine]: the “SIDER ADR on-/off-label” value in series [2] was “not found on label”. Besides, the “Free Cmax highest” value in series [3] was 280 nM. The “Percentage seizures” value in series [4] is 0.4851%. In addition, the “FDA prescription information at therapeutic dose (Convulsion/ Seizure/Lower the seizure threshold/withdrawal)” value in series [5] is reported as “not found on label”.
As to `C[C@@](Cc1ccc(O)c(O)c1)(NN)C(=O)O` [Carbidopa], in series [2], the “SIDER ADR on-/off-label” value is given as “no frequency information”. Moreover, in series [3], the “Free Cmax highest” value was 550 nM. The “Percentage seizures” value in series [4] is listed as 0.8032%. Moreover, in series [5], the “FDA prescription information at therapeutic dose (Convulsion/ Seizure/Lower the seizure threshold/withdrawal)” value is given as “on label”.
With `COc1cccc2c1C(=O)c1c(O)c3c(c(O)c1C2=O)C[C@@](O)(C(=O)CO)C[C@@H]3O[C@H]1C[C@H](N)[C@H](O)[C@H](C)O1` [Doxorubicin], in series [2], the “SIDER ADR on-/off-label” value is on record as “postmarketing, uncommon”. For the same compound, the “Free Cmax highest” value in series [3] is 3990 nM. For the same compound, the “Percentage seizures” value in series [4] was 0.3099%. Moreover, the “FDA prescription information at therapeutic dose (Convulsion/ Seizure/Lower the seizure threshold/withdrawal)” value in series [5] is on record as “On label”.
As for `O=C1CCc2ccc(OCCCCN3CCN(c4cccc(Cl)c4Cl)CC3)cc2N1` [Aripiprazole], the “SIDER ADR on-/off-label” value in series [2] is recorded as “Postmarketing”. Moreover, the “Free Cmax highest” value in series [3] was 11 nM. Besides, the “Percentage seizures” value in series [4] is 1.175%. Besides, the “FDA prescription information at therapeutic dose (Convulsion/ Seizure/Lower the seizure threshold/withdrawal)” value in series [5] is on record as “on label”.
Regarding `NC(=O)N1c2ccccc2C=Cc2ccccc21` [Carbamazepine], the “SIDER ADR on-/off-label” value in series [2] is given as “common”. In series [3], the “Free Cmax highest” value is 12100 nM. For the same compound, the “Percentage seizures” value in series [4] is 5.289%. In addition, the “FDA prescription information at therapeutic dose (Convulsion/ Seizure/Lower the seizure threshold/withdrawal)” value in series [5] is reported as “not found on label”.
Turning to `C[C@@H]1C[C@H]2[C@@H]3CCC4=CC(=O)C=C[C@]4(C)[C@@]3(F)[C@@H](O)C[C@]2(C)[C@@]1(O)C(=O)CO` [Dexamethasone], the “SIDER ADR on-/off-label” value in series [2] was “no frequency information”. The “Free Cmax highest” value in series [3] was 25 nM. For the same compound, the “Percentage seizures” value in series [4] is 0.5218%. Also, in series [5], the “FDA prescription information at therapeutic dose (Convulsion/ Seizure/Lower the seizure threshold/withdrawal)” value is reported as “On label”.
